Paper PMC5115179 (Pharmacology Research & Perspectives, 2016)

What was measured:
[1] = test system: gamma‐butyrolactone‐treated mice; assay: GBL‐mediated response protection by NCS‐382 in the absence and presence of diclofenac; type: in vivo; settings: mouse
Protocol: Wild‐type C57/B6 mice (mixed gender, n = 7) were bred in‐house, weaned at day of life (DOL) 21, and randomized to a treatment sequence (Fig. 2). […] Thirty minutes later, mice were given an i.p. injection of GBL (100 mg/kg diluted in PBS) and were placed into a clean round arena (~10 inches in diameter) and were allowed access to food and water. Mice were recorded on a camera operated by Serena acquisition software (recorded for 10 min). At 5 and 10 min following GBL, righting reflex was assessed. These procedures were repeated daily with ~24 h in between sessions. Data file names were coded such that treatments were blinded at the time of video data analysis. During video data analysis, the time of which noticeable loss of motor function or coordination (e.g., “loss of motor function”) was observed, and the time taken for the subject to enter a dissociative state and fall into an unsupported prone position (e.g., “time to loss of motion”) was monitored. Righting reflex was evaluated by placing the mouse in a supine position and the time to return to all four paws was recorded based on the timestamp of the playback video. Data for each treatment group were expressed as the mean and standard deviation, and statistical significance was evaluated using one‐way ANOVA and Tukey post hoc t test (P < 0.05).
Wild‐type C57/B6 mice (mixed gender, n = 7) were bred in‐house, weaned at day of life (DOL) 21, and randomized to a treatment sequence. […] Thirty minutes later, mice were given an i.p. injection of GBL (100 mg/kg in PBS) and were placed into a clean round arena (~10 inches in diameter) and were allowed access to food and water. Mice were recorded on a camera operated by Sirena acquisition software (recorded for 10 min). At 5 and 10 min following GBL, righting reflex was assessed. These procedures were repeated daily with ~24 h in between sessions. Data files names were coded such that video analysis was blinded at the time of data recording.

[2] = Metabolite formation kinetics in MLMs; type: in vitro ADME; settings: mouse liver microsomes
Protocol: (§1) Microsomal incubations were conducted as described above with modifications. […] The K m was calculated using nonlinear regression in Graphpad Prism. Due to the lack of authentic standard and relatively short rate of parent disappearance, the maximum formation velocity (V max) could not be determined for either metabolites.

[3] = Metabolite formation kinetics in HLMs; type: in vitro ADME; settings: human liver microsomes
Protocol: as §1

[4] = Metabolite identification in samples from mouse pharmacokinetic studies (candidate metabolites); type: in vivo; settings: LC‐MS/MS of NCS‐382‐treated mouse samples
Protocol: Metabolite identification was conducted on samples obtained from pharmacokinetic studies in mice. Analytical conditions and equipment were similar to those described above with some modifications. Samples (10 μL) were injected onto a Kinetex PFP (50 × 2.1 mm, 1.7 μm particle size) UPLC column maintained at 40°C. […] MS experiments consisted of enhanced MS (EMS), neutral loss (NL), precursor ion scan (Prec), and MRM each followed by MS/MS experiments when necessary. Constant conditions such as a source temperature (450°C), signal threshold (500 cps), and CAD gas (“high”) were used, while additional parameters (e.g., collision energy, collision energy spread, mass range, etc.) were obtained by the software during data‐dependent scans. Studies were performed using sera and brain samples, with time points pooled for individual matrices and a reference control derived by pooling the sera or brain homogenates from three vehicle‐treated animals.
Using the Light Sight software, a comprehensive list of prospective phase I and phase II metabolites were targeted (Table S2). […] A number of structurally feasible metabolites (including oxidation) were initially identified, but could not be confirmed by their mass fragmentation patterns. […] Both peaks were detected in urine samples (Fig. S1B), but not in feces.

GHB receptor = biological target: GHB receptor; design: method as in Molnár et al. 2006; settings: ref Molnár et al. 2006; cited from earlier work
aldh5a1^−/− mice = test system: aldh5a1^−/− mice; design: method as in Gupta et al. 2002; settings: ref Gupta et al. 2002; cited from earlier work
pigeon = test system: pigeon; design: method as in Koek et al., 2006; settings: pigeon, 54, 178, 320, 560 mg/kg, route ns; ref Koek et al., 2006; cited from earlier work
rat [5] = test system: rat; design: method as in Lamb et al., 2003; settings: rat, 3.2, 32 mg/kg i.p; ref Lamb et al., 2003; cited from earlier work
rat [6] = test system: rat; design: method as in Nava et al., 2001; settings: dose n.s., i.p., ref Nava et al., 2001; cited from earlier work
rat [7] = test system: rat; design: method as in Colombo et al., 1999; settings: 400 mg/kg i.p., ref Colombo et al., 1999; cited from earlier work
rat [8] = test system: rat; design: method as in Schmidt-Mutter et al., 1998; settings: 300 mg/kg i.p., ref Schmidt-Mutter et al., 1998; cited from earlier work
rat [9] = test system: rat; design: method as in Snead III, 1996; settings: 100-500 mg/kg i.p., ref Snead III, 1996; cited from earlier work
rat [10] = test system: rat; design: method as in Colombo et al., 1995; settings: rat, 12.5, 25, 50 mg/kg i.p.; ref Colombo et al., 1995; cited from earlier work
[11] = 120 min, read-out: Km for dehydrogenation
[12] = saturation not obtained, read-out: Km for glucuronidation

SMILES: O=C(O)/C=C1\CCCc2ccccc2C1O (stereo not shown) [NCS‐382, 6,7,8,9‐tetrahydro‐5‐hydroxy‐5H‐benzo‐cyclohept‐6‐ylideneacetic acid]
- time to loss of motor function compared to vehicle control ([1]; NCS‐382 300 mg/kg with diclofenac 25 mg/kg i.p. 30 min before GBL 100 mg/kg i.p.): significantly improved
- time to loss of motor function compared to vehicle control ([1]; given alone i.p. (NCS‐382 300 mg/kg or diclofenac 25 mg/kg) 30 min before GBL 100 mg/kg i.p.): trended toward increasing
- Km [2, 11]: 29.5 ± 10 µM
- Km [2, 12]: > 100 µM
- Km [3, 11]: 12.7 ± 4.8 µM
- Km [3, 12]: > 100 µM
- Peak Area (%) [4]: 25%
- Ki (GHB receptor): 1200 nM
- lifespan of SSADHD mice (aldh5a1^−/− mice): significant lifespan extension
- effects of diazepam (pigeon): GHB, its precursors 1,4-BD and GBL, and NCS-382 did not attenuate the effects of diazepam.
- motor effects of GHB (rat [5]): NCS-382 did not antagonize the motor effects of GHB, consistent with the belief that many of the behavioral actions of exogenously administered GHB result from GHB's actions at sites other than the GHB receptor.
- GHB-induced decrease of hippocampal acetylcholine release (rat [6]): GHB-induced ↓ of hippocampal acetylcholine release is mediated by GABAB receptors, based on ineffective blocking by NCS-382.
- blood ethanol levels (rat [7]): NCS-382 reduces blood ethanol levels, likely due to a lessened absorption of ethanol from the gastrointestinal tract.
- reversal of the anxiolytic effect of GHB (rat [8]): The anxiolytic effect of GHB were reversed by the benzodiazepine receptor antagonist, flumazenil, but not by naloxone or NCS-382.
- two chemically induced models for absence seizures (rat [9]): NCS-382 was protective against two chemically induced models for absence seizures.
- discriminative stimulus effects of GHB (rat [10]): Blockade of the discriminative stimulus effects of gamma-hydroxybutyric acid (GHB) by the GHB receptor antagonist NCS-382.
